Test [1] has as its target T1, Short transient receptor potential channel 4 (Mus musculus, UniProt Q9QUQ5).
T1 sequence (Q9QUQ5 whole entry): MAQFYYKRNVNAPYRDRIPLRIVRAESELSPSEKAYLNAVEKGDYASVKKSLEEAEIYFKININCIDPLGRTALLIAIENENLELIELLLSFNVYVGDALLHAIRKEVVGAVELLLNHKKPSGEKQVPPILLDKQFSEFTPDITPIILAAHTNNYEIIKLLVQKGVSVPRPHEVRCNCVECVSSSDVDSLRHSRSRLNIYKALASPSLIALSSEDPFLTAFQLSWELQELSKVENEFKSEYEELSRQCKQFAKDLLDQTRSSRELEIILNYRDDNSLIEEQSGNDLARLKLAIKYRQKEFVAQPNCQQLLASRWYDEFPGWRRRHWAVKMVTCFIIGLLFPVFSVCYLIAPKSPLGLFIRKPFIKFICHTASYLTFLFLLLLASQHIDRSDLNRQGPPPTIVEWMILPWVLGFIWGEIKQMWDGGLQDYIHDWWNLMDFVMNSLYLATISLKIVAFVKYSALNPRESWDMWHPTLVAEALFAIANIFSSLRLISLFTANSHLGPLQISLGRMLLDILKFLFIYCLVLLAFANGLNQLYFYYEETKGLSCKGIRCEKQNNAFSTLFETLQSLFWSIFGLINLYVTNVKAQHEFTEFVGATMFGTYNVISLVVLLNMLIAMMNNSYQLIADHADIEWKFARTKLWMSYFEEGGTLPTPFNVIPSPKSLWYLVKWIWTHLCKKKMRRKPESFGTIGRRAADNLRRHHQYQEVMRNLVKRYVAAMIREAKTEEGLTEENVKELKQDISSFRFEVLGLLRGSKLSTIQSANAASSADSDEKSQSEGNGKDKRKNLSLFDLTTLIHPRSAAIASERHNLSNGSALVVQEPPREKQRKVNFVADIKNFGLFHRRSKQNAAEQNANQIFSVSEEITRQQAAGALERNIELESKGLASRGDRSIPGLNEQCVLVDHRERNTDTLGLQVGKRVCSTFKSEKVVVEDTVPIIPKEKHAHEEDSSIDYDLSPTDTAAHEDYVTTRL
Description: calcium entry via TRPC4 opening agents – cell-based, HEK293 TRPC4/mu-opioid, Fluo-4 calcium, dose response (AID 434937). The class given is functional.

The subject of test [2] is HEK293. Description: inhibition of NOD1-driven NF-kB reporter – cell-based, luminescence, uHTS, primary screen (AID 1578). It counts as functional. Particulars: Homo sapiens.
For test [3], the system named is HEK293. Description: cells. The class given is functional, cell-based. The conditions noted are these: Homo sapiens.
For test [4], the system named is HEK293. Description: cells. It counts as functional, cell-based. Particulars: Homo sapiens. This is another data set of the same source.
Test [5] has as its system HEK293. Description: NOD2 signaling inhibitors in MDP-stimulated cells, cell-based, uHTS, luminescence (AID 2001). It counts as functional. Particulars: Homo sapiens.
Test [6] addresses T2, Corticotropin-releasing factor receptor 2/Corticotropin-releasing factor-binding protein (Homo sapiens, UniProt P24387+Q13324).
T2 sequence (Q13324 whole entry): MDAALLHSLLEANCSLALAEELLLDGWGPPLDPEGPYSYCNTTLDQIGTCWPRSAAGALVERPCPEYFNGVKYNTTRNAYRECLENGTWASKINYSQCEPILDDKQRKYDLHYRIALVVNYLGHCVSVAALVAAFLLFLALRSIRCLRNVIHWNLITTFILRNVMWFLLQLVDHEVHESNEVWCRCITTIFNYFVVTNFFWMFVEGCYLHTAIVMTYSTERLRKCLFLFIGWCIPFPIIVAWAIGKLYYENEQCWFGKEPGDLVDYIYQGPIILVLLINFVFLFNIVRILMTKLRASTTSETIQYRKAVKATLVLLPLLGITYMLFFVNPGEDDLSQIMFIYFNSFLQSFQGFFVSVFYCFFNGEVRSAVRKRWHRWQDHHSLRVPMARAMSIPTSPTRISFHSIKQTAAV
T2 sequence (P24387 whole entry): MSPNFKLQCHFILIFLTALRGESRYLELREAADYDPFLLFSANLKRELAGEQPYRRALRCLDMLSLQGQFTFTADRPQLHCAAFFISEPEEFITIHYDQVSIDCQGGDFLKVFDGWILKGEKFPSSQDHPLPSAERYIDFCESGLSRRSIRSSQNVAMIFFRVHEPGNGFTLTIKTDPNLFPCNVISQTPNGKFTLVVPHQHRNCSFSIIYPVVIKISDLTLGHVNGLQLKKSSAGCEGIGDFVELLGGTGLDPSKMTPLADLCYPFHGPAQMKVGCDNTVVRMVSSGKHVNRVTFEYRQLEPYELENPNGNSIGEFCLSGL
Description: activators of CRF receptor 2 with binding protein – uHTS hits, confirmation (AID 602473). It counts as functional. The conditions noted are these: read-out: EC50_Mean.

Test [7] relates to Streptococcus sp. 'group A'. Description: Streptococcus pyogenes SK(-)GAS viability under kanamycin – luminescence, BacTiterGlo, confirmation, counter-screen for streptokinase expression inhibitor project, dose response (AID 1900). It counts as functional, organism-based. In general terms: Counterscreens check selectivity or assay interference.
The next test deals with T3, Streptokinase A (Streptococcus pyogenes serotype M1, UniProt P10520).
T3 sequence (P10520 whole entry): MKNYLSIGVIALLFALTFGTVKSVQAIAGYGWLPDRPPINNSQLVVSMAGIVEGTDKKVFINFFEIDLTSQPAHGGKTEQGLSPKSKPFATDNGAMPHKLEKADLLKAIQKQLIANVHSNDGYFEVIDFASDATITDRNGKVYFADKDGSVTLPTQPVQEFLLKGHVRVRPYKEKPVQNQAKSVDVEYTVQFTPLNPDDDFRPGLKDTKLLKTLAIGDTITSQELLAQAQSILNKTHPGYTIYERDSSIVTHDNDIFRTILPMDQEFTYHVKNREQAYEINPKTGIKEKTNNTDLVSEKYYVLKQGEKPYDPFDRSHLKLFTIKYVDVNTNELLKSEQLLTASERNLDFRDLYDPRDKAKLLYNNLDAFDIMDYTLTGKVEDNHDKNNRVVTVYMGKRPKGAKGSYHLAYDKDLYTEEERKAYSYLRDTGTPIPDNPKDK
Description: viability-normalized secreted streptokinase activity reduction – plasminogen activation absorbance, OD405, dose response (AID 1914).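 Also: secreted streptokinase activity via plasminogen activation per viability signal from cell pellet.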 It counts as functional, Streptococcus pyogenes M1 GAS.

The test system of another test is Streptococcus. Description: GAS UMAA2166 growth inhibition – luminescence, BacTiterGlo, counter-screen for streptokinase expression inhibitor project, dose response (AID 1915).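 Also: potency for reduction of bacterial viability or growth.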 It counts as functional, organism-based.
The target of test [8] is Luciferin 4-monooxygenase (Photinus pyralis, UniProt P08659). Briefly: inhibition of purified Photinus pyralis luciferase – biochemical, luminescence, dose response (AID 1891).
Test [9] in a line: Luminescence Cell-Based Dose Confirmation HTS to Identify Inhibitors of Platelet Dense Granule Release. [Related pubchem assays: 1663 (Primary HTS), 1678 (Summary of Project)]. The class given is functional.
For test [10], the target named is T4, Calpain-2 catalytic subunit (Sus scrofa, UniProt P43367).
T4 sequence (P43367 whole entry): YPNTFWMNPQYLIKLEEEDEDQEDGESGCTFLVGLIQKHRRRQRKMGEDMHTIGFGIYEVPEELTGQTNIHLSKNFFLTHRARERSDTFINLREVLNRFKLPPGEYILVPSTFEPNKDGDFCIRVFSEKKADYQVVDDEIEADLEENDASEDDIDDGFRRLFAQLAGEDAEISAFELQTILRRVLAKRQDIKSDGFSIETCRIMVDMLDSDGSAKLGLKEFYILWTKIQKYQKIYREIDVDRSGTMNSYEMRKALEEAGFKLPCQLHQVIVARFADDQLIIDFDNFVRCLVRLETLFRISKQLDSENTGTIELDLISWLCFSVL
Description: m-calpain protease blockers, concentration series – biochemical, fluorogenic peptide substrate, dose response (AID 1420). The class given is functional.

The target in a further test is T5, Coagulation factor XII (Homo sapiens, UniProt P00748).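 Also: activated factor XIIa alpha cleaving a fluorogenic AMC peptide substrate; inhibitor potency from loss of enzyme activity.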
T5 sequence (P00748 whole entry): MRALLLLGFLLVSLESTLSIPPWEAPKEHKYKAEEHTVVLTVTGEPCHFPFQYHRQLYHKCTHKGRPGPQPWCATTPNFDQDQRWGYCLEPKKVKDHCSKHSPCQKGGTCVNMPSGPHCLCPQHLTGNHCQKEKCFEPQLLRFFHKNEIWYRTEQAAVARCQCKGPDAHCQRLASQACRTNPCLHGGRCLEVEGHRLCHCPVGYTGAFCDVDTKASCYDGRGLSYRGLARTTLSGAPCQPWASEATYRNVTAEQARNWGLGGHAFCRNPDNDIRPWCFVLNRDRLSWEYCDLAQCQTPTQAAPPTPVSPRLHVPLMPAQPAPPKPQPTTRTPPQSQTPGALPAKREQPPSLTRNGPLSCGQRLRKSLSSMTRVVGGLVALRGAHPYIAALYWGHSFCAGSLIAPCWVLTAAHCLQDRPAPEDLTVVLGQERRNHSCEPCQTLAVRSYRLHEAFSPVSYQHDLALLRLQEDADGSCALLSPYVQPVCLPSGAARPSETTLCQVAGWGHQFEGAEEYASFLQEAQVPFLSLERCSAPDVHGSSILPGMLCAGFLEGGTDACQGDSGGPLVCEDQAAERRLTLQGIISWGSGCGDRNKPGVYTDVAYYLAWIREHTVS
It counts as functional.

Calls of active or inactive are those of the source.

These results are taken from ChEMBL document CHEMBL1201862, “PubChem BioAssay data set” (2004).

As usually defined, the IC50 is the concentration that inhibits the measured activity by half.

Luciferin 4-monooxygenase, sequence (P08659 whole entry): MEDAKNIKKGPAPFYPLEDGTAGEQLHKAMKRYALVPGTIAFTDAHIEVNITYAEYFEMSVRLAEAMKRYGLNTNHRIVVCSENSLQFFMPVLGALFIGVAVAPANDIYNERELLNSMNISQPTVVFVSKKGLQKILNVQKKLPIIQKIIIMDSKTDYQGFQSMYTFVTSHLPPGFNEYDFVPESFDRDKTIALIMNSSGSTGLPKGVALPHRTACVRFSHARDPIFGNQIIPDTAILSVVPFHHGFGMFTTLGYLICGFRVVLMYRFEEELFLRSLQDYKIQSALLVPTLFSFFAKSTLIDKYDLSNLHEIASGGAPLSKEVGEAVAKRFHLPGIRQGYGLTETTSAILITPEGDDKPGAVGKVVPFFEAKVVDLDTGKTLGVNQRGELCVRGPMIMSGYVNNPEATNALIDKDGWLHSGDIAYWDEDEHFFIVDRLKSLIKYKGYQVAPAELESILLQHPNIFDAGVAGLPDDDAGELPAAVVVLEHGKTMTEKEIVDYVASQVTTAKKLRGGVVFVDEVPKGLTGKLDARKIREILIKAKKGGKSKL

For the compound `CN(CCc1ccccn1)C(=S)Nc1cccc(S(=O)(=O)N(C)C)c1`, the EC50 in [1] is 5.31 µM (active).
Still for that read-out and setting: the figure for `CCCCC(c1nnnn1CC1CCCO1)N1CCN(c2nc3ccccc3s2)CC1` (stereo not drawn) is 1.06 µM (active).
On the same count and under the same terms, the figure for `CCN1CCN(c2c(S(=O)(=O)c3ccc(C)c(C)c3)cnc3ccc(F)cc23)CC1` is 0.944 µM (active).
On to `Cc1ccc(O)c(C(=O)c2cc(C#N)c3nc4ccccc4n3c2)c1`, for which the EC50 in the test with HEK293 [2] is 3.28 µM (active); in test [6], 17.5 µM (active). Also, the results for the IC50 in the test with HEK293 [3], with HEK293 [4] and with HEK293 [5] were 14.8 µM (active), > 20 µM (inactive) and 10.2 µM (inactive), respectively.
In the case of `CN(C)C(CNC(=O)CCc1c[nH]c2ccccc12)c1ccccc1` (stereo not drawn), the EC50 in [1] is 0.0747 µM (active).
On to `S=C(Nc1ccc(Oc2ccccc2)cc1)N1CCN(c2ccccn2)CC1`, for which the EC50 in the test with HEK293 [2] was 9.44 µM (active). Also, the values for the IC50 with HEK293 [3], in the test with HEK293 [4] and in the test on HEK293 [5] were 5.27 µM (active), > 20 µM (inactive) and 6.67 µM (active), respectively.
The like results for `CC(Sc1n[nH]c2c3ccccc3nc-2n1)C(=O)NC1CCCCC1` (stereo not drawn) were, in that order, 4.88 µM (active), 11.1 µM (active), > 20 µM (inactive) and 9.89 µM (active).
Consider `CCOC(=O)C1=NN(C(=O)c2ccc(C)cc2)C(O)(c2ccc(Cl)cc2)C1` (stereo not drawn), for which the EC50 in test [7] is 2.15 µM (active); at Streptokinase A, > 150 µM (not active); in the test with Streptococcus, 8.19 µM (active); in test [1], 9.44 µM (active).
Take `COCCCn1c(=O)/c(=C\c2ccccc2OC(C)C)s/c1=C(/C#N)C(=O)Nc1ccc(C(=O)O)cc1`: the EC50 was 1.44 µM (active) in [7]; > 150 µM (not active) on Streptokinase A; > 112 µM (not active) in test [8]; > 112 µM (not active) in test [9]; > 50 µM (not active) in the test on Streptococcus. The values for the IC50 (in test [10]; on Coagulation factor XII) were 3.61 µM (not active) and > 50 µM (inactive), respectively.
